pIC50: −log10 of the molar value.
test system: influenza A virus A/Aichi/2/68 (H3N2); experiment: Cytopathic effect (CPE) assay H3N2; format: cell-based, influenza A virus (H3N2) on MDCK cells; details: Influenza A virus, H3N2, activity conc 1 (μM per method); read-out: CPE H3N2 reduction (%)
Protocol: A possible measure of the […] antiviral activity of the compounds having the formula I or II is the CPE assay disclosed herein. […] In this connection, the reduction in the virus-mediated cytopathic effect (CPE) upon treatment with the compounds was calculated as follows: The cell viability of infected-treated and uninfected-treated cells was determined using an ATP-based cell viability assay (Promega). The response in relative luminescent units (RLU) of infected-untreated samples was subtracted from the response (RLU) of the infected-treated samples and then normalized to the viability of the corresponding uninfected sample resulting in % CPE reduction.
The influenza A virus (IAV) was obtained from American Tissue Culture Collection (A/Aichi/2/68 (H3N2); VR-547). Virus stocks were prepared by propagation of virus on Mardin-Darby canine kidney (MDCK; ATCC CCL-34) cells and infectious titres of virus stocks were determined by the 50% tissue culture infective dose (TCID50) analysis as described in Reed, L. J., and H. Muench. 1938, Am. J. Hyg. 27:493-497.
MDCK cells were seeded in 96-well plates at 2×10^4 cells/well using DMEM/Ham's F-12 (1:1) medium containing 10% foetal bovine serum (FBS), 2 mM L-glutamine and 1 antibiotics (all from PAA). Until infection the cells were incubated for 5 hrs at 37° C., 5.0 CO2 to form a ˜80% confluent monolayer on the bottom of the well. Each test compound was dissolved in DMSO and generally tested at 25 μM and 250 μM. In those cases where the compounds were not soluble at that concentration they were tested at the highest soluble concentration. The compounds were diluted in infection medium (DMEM/Ham's F-12 (1:1) containing 5 μg/ml trypsin, and 1% antibiotics) for a final plate well DMSO concentration of 1%. The virus stock was diluted in infection medium (DMEM/Ham's F-12 (1:1) containing 5 μg/ml Trypsin, 1% DMSO, and 1% antibiotics) to a theoretical multiplicity of infection (MOI) of 0.05.
After removal of the culture medium and one washing step with PBS, virus and compound were added together to the cells. In the wells used for cytotoxicity determination (i.e. in the absence of viral infection), no virus suspension was added. Instead, infection medium was added. Each treatment was conducted in two replicates. After incubation at 37° C., 5% CO2 for 48 hrs, each well was observed microscopically for apparent cytotoxicity, precipitate formation, or other notable abnormalities. Then, cell viability was determined using CellTiter-Glo luminescent cell viability assay (Promega). The supernatant was removed carefully and 65 μl of the reconstituted reagent were added to each well and incubated with gentle shaking for 15 min at room temperature. Then, 60 μl of the solution was transferred to an opaque plate and luminescence (RLU) was measured using Synergy HT plate reader (Biotek).
Relative cell viability values of uninfected-treated versus uninfected-untreated cells were used to evaluate cytotoxicity of the compounds. Substances with a relative viability below 80% at the tested concentration were regarded as cytotoxic and retested at lower concentrations.
Reduction in the virus-mediated cytopathic effect (CPE) upon treatment with the compounds was calculated as follows: The response (RLU) of infected-untreated samples was subtracted from the response (RLU) of the infected-treated samples and then normalized to the viability of the corresponding uninfected sample resulting in % CPE reduction.

Compound	inhibition at 1 µM [%]
O=C(c1cc(-c2ccccc2)ccn1)N(O)Cc1ccc(F)cc1 [drawing 223]	-3.2
O=C(c1cc(C2=CCCCC2)ccn1)N(O)Cc1ccccc1 [drawing 257]	3.4

same assay, conditions: Influenza A virus, H3N2, activity conc 2 (μM per method); read-out: CPE H3N2 reduction (%)

Compound	inhibition at 2 µM [%]
O=C(c1cc(N2CCCCC2)ccn1)N(O)CCCc1ccccc1 [drawing 203]	7.7
CC(C)c1cccc(-c2ccc(C(=O)NO)nc2)c1 [drawing 205]	-2.1
CC(C)c1cccc(-c2ccc(C(=O)N(O)CCc3ccccc3)nc2)c1 [drawing 207]	2.1
O=C(c1cc(-c2ccc(Cl)cc2)ccn1)N(O)Cc1ccccc1 [drawing 219]	-6.7

same assay, conditions: Influenza A virus, H3N2, activity conc 5 (μM per method); read-out: CPE H3N2 reduction (%)

Compound	inhibition at 5 µM [%]
O=C(NOCc1ccccc1)c1cc2ccccc2cn1 [drawing 182]	-1.5
O=C(c1cc(N2CCCCC2)ccn1)N(O)Cc1ccccc1 [drawing 183]	1.1
O=C(NOCc1ccccc1)c1cc(N2CCCCC2)ccn1 [drawing 187]	1
O=C(c1ccc(N2CCCCC2)cn1)N(O)Cc1ccccc1 [drawing 208]	-3.4
O=C(c1cc(-c2ccc(Cl)c(Cl)c2)ccn1)N(O)Cc1ccccc1 [drawing 220]	8.1
NC(=O)c1cccc(-c2ccnc(C(=O)N(O)Cc3ccccc3)c2)c1 [drawing 221]	-2.7
CC(C)(C)OC(=O)N1CC=C(c2ccnc(C(=O)N(O)Cc3ccccc3)c2)CC1 [drawing 229]	1.2
NC(=O)c1ccc(-c2ccnc(C(=O)N(O)Cc3ccccc3)c2)cc1 [drawing 232]	-2.5
CN(C)S(=O)(=O)c1cccc(-c2ccnc(C(=O)N(O)Cc3ccccc3)c2)c1 [drawing 233]	-1.8
O=C(c1cc(-c2cccc(CO)c2)ccn1)N(O)Cc1ccccc1 [drawing 240]	7.7
CC(C)(C)OC(=O)N1CCC=C(c2ccnc(C(=O)N(O)Cc3ccccc3)c2)C1 [drawing 256]	10.2
O=C(c1cc(C2CCCCC2)ccn1)N(O)Cc1ccccc1 [drawing 258]	-0.5

same assay, conditions: Influenza A virus, H3N2, activity conc 10 (μM per method); read-out: CPE H3N2 reduction (%)

Compound	inhibition at 10 µM [%]
Cc1cccc(-c2ccc(C(=O)N(O)Cc3ccccc3)nc2)c1 [drawing 181]	15.5
O=C(c1cc(-c2ccccc2)ccn1)N(O)Cc1ccccc1 [drawing 211]	-9.3

same assay, conditions: Influenza A virus, H3N2, activity conc 12 (μM per method); read-out: CPE H3N2 reduction (%)

Compound	inhibition at 12 µM [%]
O=C(c1ccc(-c2ccccc2)cn1)N(O)Cc1ccccc1 [drawing 215]	13.4
O=C(NO)c1ccc(-c2ccccc2)cn1 [drawing 216]	21.7

same assay, conditions: Influenza A virus, H3N2, activity conc 20 (μM per method); read-out: CPE H3N2 reduction (%)

Compound	inhibition at 20 µM [%]
O=C(c1cc2ccccc2cn1)N(O)CCc1ccccc1 [drawing 202]	-1.8

same assay, conditions: Influenza A virus, H3N2, activity conc 50 (μM per method); read-out: CPE H3N2 reduction (%)

Compound	inhibition at 50 µM [%]
CN(OCc1ccccc1)C(=O)c1cc2ccccc2cn1 [drawing 184]	0.6
CN(O)C(=O)c1cc2ccccc2cn1 [drawing 199]	-0.6
O=C(c1cc2ccccc2cn1)N(O)Cc1ccccc1 [drawing 200]	34.2
O=C(NO)c1cc2ccccc2cn1 [drawing 201]	94.3
O=C(NO)c1ccc(N2CCCC2)cn1 [drawing 204]	-4.3
O=C(c1cc(NS(=O)(=O)Cc2ccccc2)ccn1)N(O)Cc1ccccc1 [drawing 209]	6.2
O=C(NO)c1cc(N2CCOCC2)ccn1 [drawing 212]	-7.1
O=C(c1cc(NS(=O)(=O)c2ccccc2)ccn1)N(O)Cc1ccccc1 [drawing 213]	-5.2
C[C@@H]1CN(c2ccnc(C(=O)N(O)Cc3ccccc3)c2)C[C@H](C)O1 [drawing 218]	10.5
O=C(c1cc(N2CCCC(F)(F)C2)ccn1)N(O)Cc1ccccc1 [drawing 224]	8.9
O=C(c1cc(N2CCC(N3CCCC3)CC2)ccn1)N(O)Cc1ccccc1 [drawing 226]	10.7
CC(C)(C)OC(=O)NC1CCN(c2ccnc(C(=O)N(O)Cc3ccccc3)c2)CC1 [drawing 227]	8.3
CN(C)CCNC(=O)c1cccc(-c2ccnc(C(=O)N(O)Cc3ccccc3)c2)c1 [drawing 230]	8.9
O=C(c1cc(N2CCC3(CC2)OCCO3)ccn1)N(O)Cc1ccccc1 [drawing 235]	9.5
CN1CC=C(c2ccnc(C(=O)N(O)Cc3ccccc3)c2)CC1 [drawing 260]	10.6
O=C(c1cc(C2=CC3CCC(C2)N3)ccn1)N(O)Cc1ccccc1 (stereo not shown) [drawing 283]	5.49

same assay, conditions: Influenza A virus, H3N2; read-out: CPE H3N2 IC50

Compound	pIC50
O=C(NO)c1cc2ccccc2cn1 [drawing 201]	4.35

same assay, conditions: activity conc 5 (μM per method)

Compound	CPE H3N2 reduction (%)
O=C(c1cc(N2CCCCC2)ccn1)N(O)Cc1ccccc1 [drawing 197]	1.1

same assay, conditions: activity conc 50 (μM per method)

Compound	CPE H3N2 reduction (%)
O=C(c1cc(N2CCOCC2)ccn1)N(O)Cc1ccccc1 [drawing 241]	−3.4
Cl.O=C(c1cc(N2CCOCC2)ccn1)N(O)Cc1ccccc1 [drawing 242]	6.3
Cl.O=C(NO)c1cc(NS(=O)(=O)Cc2cccc(Cl)c2)ccn1 [drawing 267]	5.9
Cl.O=C(NO)c1cc(NS(=O)(=O)Cc2cc(Cl)cc(Cl)c2)ccn1 [drawing 276]	9.3
Cl.O=C(NO)c1cc(NS(=O)(=O)Cc2cccc(Cl)c2)ccn1 [drawing 288]	2.29

test system: not given; experiment: not given; details: not given

Compound	melting point [°C]
O=C(c1cc(N2CCC3(CC2)OCCO3)ccn1)N(O)Cc1ccccc1	98 to 102
Cc1cccc(C(=O)NOCc2ccccc2)n1	75 to 80
Cc1c(-c2cccnc2)sc2nc(N)[nH]c(=O)c12	280 to 290
O=C(NOCc1ccccc1)c1ccc(N2CCCC2)cn1	165 to 170
O=C(NOCc1ccccc1)c1cc2ccccc2cn1	85 to 90
CCON(C)C(=O)c1ccc(-c2ccccc2)cn1	70 to 75
Cc1c(-c2ccc(Cl)c(F)c2)sc2nc(N)[nH]c(=O)c12	350 to 370
Cc1cc(-c2sc3nc(N)[nH]c(=O)c3c2C)ccc1Cl	330 to 350
Nc1nc2sc(-c3ccccc3)cc2c(=O)[nH]1	> 360
Cc1c(-c2ccc(Cl)c(C(F)(F)F)c2)sc2nc(N)[nH]c(=O)c12	> 350
Cc1c(-c2cc(C#N)ccc2Cl)sc2nc(N)[nH]c(=O)c12	> 350
Cc1c(-c2cccc(C#N)c2F)sc2nc(N)[nH]c(=O)c12	350 to 370
Cc1c(-c2ccccc2)sc2nc(N)[nH]c(=O)c12	356 to 358
Cc1c(-c2cccc(CN(C)C)c2)sc2nc(N)[nH]c(=O)c12	207 to 212
Cl.O=C(NO)c1cc(NS(=O)(=O)Cc2ccc(Cl)c(Cl)c2)ccn1	228 to 238
Cl.O=C(NO)c1cc(NS(=O)(=O)Cc2cccc(Cl)c2Cl)ccn1	210 to 218
Cc1c(-c2ccccc2)sc2nc(NCCCO)[nH]c(=O)c12	227 to 229
Cc1c(-c2ccccc2)sc2nc(NCCN3CCOCC3)[nH]c(=O)c12	240 to 246
Cc1c(-c2ccccc2)sc2nc(N3CCOCC3)[nH]c(=O)c12	300 to 320
Cc1c(-c2ccccc2)sc2nc(NCCNC(=O)CCCN3CCN(C)CC3)[nH]c(=O)c12	192 to 196
O=C(c1cc(-c2ccc(Cl)c(Cl)c2)ccn1)N(O)Cc1ccccc1	125 to 130
NC(=O)c1cccc(-c2ccnc(C(=O)N(O)Cc3ccccc3)c2)c1	158 to 162
NC(=O)c1ccc(-c2ccnc(C(=O)N(O)Cc3ccccc3)c2)cc1	155 to 160
CC(C)(C)OC(=O)N1CCC=C(c2ccnc(C(=O)N(O)Cc3ccccc3)c2)C1	128 to 134
